Source: patent US10167262B2, “Herbicidal substituted 3-arylpyrazoles” (FMC CORPORATION, priority 2014, dated 2019)

Columns and labels:
Type in all cases: in vivo
[1] = tested on: pigweed (Amaranthus retroflexus); assay: Test C pre-/postemergence greenhouse test, plant response rating 0-100
How it was run: (§1)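 Visual 0–100 control scores, taken 13 to 15 days post-application in a greenhouse, reflect treatment preemergence (seed in loam soil with sand) or postemergence (2–18 cm plants in peat moss, vermiculite medium). A dash marks no result.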

[2] = tested on: johnsongrass (Sorghum halepense); assay: as above
How it was run: as §1

soybean (Glycine max) = assay: as above
How it was run: as §1

[3] = tested on: giant foxtail (Setaria faberii); assay: as above
How it was run: as §1

[4] = tested on: winter wheat (Triticum aestivum); assay: as above
How it was run: as §1

[5] = tested on: morningglory (Ipomoea coccinea); assay: as above
How it was run: as §1

[6] = tested on: lambsquarters (Chenopodium album); assay: as above
How it was run: as §1

[7] = tested on: velvetleaf (Abutilon theophrasti); assay: as above
How it was run: as §1

corn (Zea mays) = assay: as above
How it was run: as §1

[8] = tested on: blackgrass (Alopecurus myosuroides); assay: as above;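 further: 0 is no effect and 100 is complete control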
How it was run: as §1

wild oat (Avena fatua) = assay: Test C postemergence greenhouse test, plant response rating 0-100; conditions: for Plant response rating, Oat, Wild: scale 0 to 100
How it was run: (§2)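 Potted in peat/vermiculite mix; postemergence application at 1–4 leaves (2–18 cm); greenhouse 13–15 d; visual score 0–100 relative to untreated plants; dash = no test result.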

[9] = tested on: chickweed (common chickweed, Stellaria media); assay: as above; conditions: for Plant response rating, Chickweed: scale 0 to 100
How it was run: as §2

kochia (Kochia scoparia) = assay: as above; conditions: for Plant response rating, Kochia: scale 0 to 100
How it was run: as §2

[10] = Postemergence, 250 g ai/ha, scale 0 to 100
[11] = Postemergence, 500 g ai/ha, scale 0 to 100

Structure (SMILES): CCOC(OCC)(c1cccs1)c1c[nH]nc1-c1cc(Cl)cc(Cl)c1 [Compound 27]
- Plant response rating (0 to 100), Pigweed ([1]; Postemergence, 62 g ai/ha): 80
- Plant response rating (0 to 100), Pigweed ([1]; Postemergence, 125 g ai/ha): 95
- Plant response rating, Pigweed [1, 10]: 100
- Plant response rating, Pigweed [1, 11]: 100
- Plant response rating, Pigweed ([1]; Preemergence, 62 g ai/ha): 98
- Plant response rating, Pigweed ([1]; Preemergence, 125 g ai/ha): 100
- Plant response rating, Pigweed ([1]; Preemergence, 250 g ai/ha): 100
- Plant response rating, Pigweed ([1]; Preemergence, 500 g ai/ha): 100
- Plant response rating (0 to 100), Johnsongrass ([2]; Postemergence, 62 g ai/ha): 0
- Plant response rating (0 to 100), Johnsongrass ([2]; Postemergence, 125 g ai/ha): 0
- Plant response rating, Johnsongrass [2, 10]: 0
- Plant response rating, Johnsongrass [2, 11]: 10
- Plant response rating, Johnsongrass ([2]; Preemergence, 62 g ai/ha): 0
- Plant response rating, Johnsongrass ([2]; Preemergence, 125 g ai/ha): 0
- Plant response rating, Johnsongrass ([2]; Preemergence, 250 g ai/ha): 0
- Plant response rating, Johnsongrass ([2]; Preemergence, 500 g ai/ha): 0
- Plant response rating (0 to 100), Soybean (soybean (Glycine max); Postemergence, 62 g ai/ha): 0
- Plant response rating (0 to 100), Soybean (soybean (Glycine max); Postemergence, 125 g ai/ha): 0
- Plant response rating, Soybean (soybean (Glycine max); [10]): 0
- Plant response rating, Soybean (soybean (Glycine max); [11]): 0
- Plant response rating, Soybean (soybean (Glycine max); Preemergence, 62 g ai/ha): 0
- Plant response rating, Soybean (soybean (Glycine max); Preemergence, 125 g ai/ha): 0
- Plant response rating, Soybean (soybean (Glycine max); Preemergence, 250 g ai/ha): 40
- Plant response rating, Soybean (soybean (Glycine max); Preemergence, 500 g ai/ha): 0
- Plant response rating (0 to 100), Foxtail, Giant ([3]; Postemergence, 62 g ai/ha): 0
- Plant response rating (0 to 100), Foxtail, Giant ([3]; Postemergence, 125 g ai/ha): 0
- Plant response rating, Foxtail, Giant [3, 10]: 0
- Plant response rating, Foxtail, Giant [3, 11]: 0
- Plant response rating, Foxtail, Giant ([3]; Preemergence, 62 g ai/ha): 0
- Plant response rating, Foxtail, Giant ([3]; Preemergence, 125 g ai/ha): 0
- Plant response rating, Foxtail, Giant ([3]; Preemergence, 250 g ai/ha): 0
- Plant response rating, Foxtail, Giant ([3]; Preemergence, 500 g ai/ha): 0
- Plant response rating (0 to 100), Wheat ([4]; Postemergence, 62 g ai/ha): 0
- Plant response rating (0 to 100), Wheat ([4]; Postemergence, 125 g ai/ha): 0
- Plant response rating, Wheat [4, 10]: 0
- Plant response rating, Wheat [4, 11]: 0
- Plant response rating, Wheat ([4]; Preemergence, 62 g ai/ha): 0
- Plant response rating, Wheat ([4]; Preemergence, 125 g ai/ha): 0
- Plant response rating, Wheat ([4]; Preemergence, 250 g ai/ha): 0
- Plant response rating, Wheat ([4]; Preemergence, 500 g ai/ha): 0
- Plant response rating (0 to 100), Morningglory ([5]; Postemergence, 62 g ai/ha): 0
- Plant response rating (0 to 100), Morningglory ([5]; Postemergence, 125 g ai/ha): 0
- Plant response rating, Morningglory [5, 10]: 0
- Plant response rating, Morningglory [5, 11]: 55
- Plant response rating, Morningglory ([5]; Preemergence, 62 g ai/ha): 0
- Plant response rating, Morningglory ([5]; Preemergence, 125 g ai/ha): 0
- Plant response rating, Morningglory ([5]; Preemergence, 250 g ai/ha): 0
- Plant response rating, Morningglory ([5]; Preemergence, 500 g ai/ha): 0
- Plant response rating (0 to 100), Lambsquarters ([6]; Postemergence, 62 g ai/ha): 75
- Plant response rating (0 to 100), Lambsquarters ([6]; Postemergence, 125 g ai/ha): 95
- Plant response rating, Lambsquarters [6, 10]: 98
- Plant response rating, Lambsquarters [6, 11]: 98
- Plant response rating, Lambsquarters ([6]; Preemergence, 62 g ai/ha): 100
- Plant response rating, Lambsquarters ([6]; Preemergence, 125 g ai/ha): 100
- Plant response rating, Lambsquarters ([6]; Preemergence, 250 g ai/ha): 100
- Plant response rating, Lambsquarters ([6]; Preemergence, 500 g ai/ha): 100
- Plant response rating (0 to 100), Velvetleaf ([7]; Postemergence, 62 g ai/ha): 65
- Plant response rating (0 to 100), Velvetleaf ([7]; Postemergence, 125 g ai/ha): 70
- Plant response rating, Velvetleaf [7, 10]: 75
- Plant response rating, Velvetleaf [7, 11]: 75
- Plant response rating, Velvetleaf ([7]; Preemergence, 62 g ai/ha): 10
- Plant response rating, Velvetleaf ([7]; Preemergence, 125 g ai/ha): 40
- Plant response rating, Velvetleaf ([7]; Preemergence, 250 g ai/ha): 65
- Plant response rating, Velvetleaf ([7]; Preemergence, 500 g ai/ha): 60
- Plant response rating (0 to 100), Corn (corn (Zea mays); Postemergence, 62 g ai/ha): 0
- Plant response rating (0 to 100), Corn (corn (Zea mays); Postemergence, 125 g ai/ha): 0
- Plant response rating, Corn (corn (Zea mays); [10]): 0
- Plant response rating, Corn (corn (Zea mays); [11]): 0
- Plant response rating, Corn (corn (Zea mays); Preemergence, 62 g ai/ha): 0
- Plant response rating, Corn (corn (Zea mays); Preemergence, 125 g ai/ha): 0
- Plant response rating, Corn (corn (Zea mays); Preemergence, 250 g ai/ha): 0
- Plant response rating, Corn (corn (Zea mays); Preemergence, 500 g ai/ha): 0
- Plant response rating (0 to 100), Blackgrass ([8]; Postemergence, 62 g ai/ha): 0
- Plant response rating, Blackgrass ([8]; Postemergence, 125 g ai/ha, scale 0 to 100): 5
- Plant response rating, Blackgrass [8, 10]: 0
- Plant response rating, Blackgrass [8, 11]: 0
- Plant response rating, Blackgrass ([8]; Preemergence, 62 g ai/ha): 20
- Plant response rating, Blackgrass ([8]; Preemergence, 125 g ai/ha): 0
- Plant response rating, Blackgrass ([8]; Preemergence, 250 g ai/ha): 50
- Plant response rating, Blackgrass ([8]; Preemergence, 500 g ai/ha): 0
- Plant response rating (0 to 100), Oat, Wild (wild oat (Avena fatua); 62 g ai/ha): 0
- Plant response rating (0 to 100), Oat, Wild (wild oat (Avena fatua); 125 g ai/ha): 0
- Plant response rating, Oat, Wild (wild oat (Avena fatua); 250 g ai/ha): 5
- Plant response rating, Oat, Wild (wild oat (Avena fatua); 500 g ai/ha): 5
- Plant response rating (0 to 100), Chickweed ([9]; 62 g ai/ha): 80
- Plant response rating (0 to 100), Chickweed ([9]; 125 g ai/ha): 85
- Plant response rating, Chickweed ([9]; 250 g ai/ha): 90
- Plant response rating, Chickweed ([9]; 500 g ai/ha): 90
- Plant response rating (0 to 100), Kochia (kochia (Kochia scoparia); 62 g ai/ha): 80
- Plant response rating (0 to 100), Kochia (kochia (Kochia scoparia); 125 g ai/ha): 80
- Plant response rating, Kochia (kochia (Kochia scoparia); 250 g ai/ha): 90
- Plant response rating, Kochia (kochia (Kochia scoparia); 500 g ai/ha): 90
